Reference: US20130102595A1 (Curis, Inc., priority 2011, published 2013)

Legend:
PI3Kβ (p110β/p85α) = biological target: T1, PI3Kβ (p110β/p85α) (Homo sapiens, UniProt P42338); assay: PI3Kβ ADP-Glo assay; format: biochemical; conditions: 20 μM PIP2, 10 μM ATP, 90 minutes
T1 construct: His (N); made in house; host or cells: Baculovirus-infected Sf9 cells
Experimental: (B) an In Vitro Assay which Determines the Ability of a Test Compound to Inhibit PI3Kβ.
(§1) Activity of PI3Kβ was measured using ADP-Glo assay from Promega. P13Kα, a complex of N-terminal His-tagged recombinant full-length human p110β (GenBank, Accession No. NM_006219) and untagged recombinant full length human p85α (GenBank Accession No. XM—043865) were co-expressed in a Baculovirus infected Sf9 cell expression system. The ADP-Glo assay was performed to measure the amount of ADP generated from ATP hydrolysis coupled with PIP2 phosphorylation by the purified recombinant PI3Kβ (p110β/p85α). PI3Kβ was incubated with 20 μM PIP2 substrate in the reaction buffer (10 mM Tris-HCl, pH 7.5, 50 mM NaCl, 5 mM MgCl2, 10 μM ATP and 0.5% DMSO) for 90 minutes at room temperature. The ADP generated was then detected by ADP-Glo assay from Promega, a luminescent ADP detection assay. The ADP-Glo assay is performed in two steps; first, after the kinase reaction, ADP-Glo Reagent is added to terminate the kinase reaction and deplete the remaining ATP. Second, the Kinase Detection Reagent is added to simultaneously convert ADP to ATP and allow the newly synthesized ATP to be measured using a luciferase/luciferin reaction.

PI3Kγ (p120γ) = biological target: T2, PI3Kγ (p120γ) (Homo sapiens, UniProt P48736); assay: PI3Kγ ADP-Glo assay; format: biochemical; conditions: 20 μM PIP2, 10 μM ATP, 90 minutes
T2 construct: His (N); made in house; host or cells: Baculovirus-infected Sf9 cells
T2 sequence (P48736 whole entry): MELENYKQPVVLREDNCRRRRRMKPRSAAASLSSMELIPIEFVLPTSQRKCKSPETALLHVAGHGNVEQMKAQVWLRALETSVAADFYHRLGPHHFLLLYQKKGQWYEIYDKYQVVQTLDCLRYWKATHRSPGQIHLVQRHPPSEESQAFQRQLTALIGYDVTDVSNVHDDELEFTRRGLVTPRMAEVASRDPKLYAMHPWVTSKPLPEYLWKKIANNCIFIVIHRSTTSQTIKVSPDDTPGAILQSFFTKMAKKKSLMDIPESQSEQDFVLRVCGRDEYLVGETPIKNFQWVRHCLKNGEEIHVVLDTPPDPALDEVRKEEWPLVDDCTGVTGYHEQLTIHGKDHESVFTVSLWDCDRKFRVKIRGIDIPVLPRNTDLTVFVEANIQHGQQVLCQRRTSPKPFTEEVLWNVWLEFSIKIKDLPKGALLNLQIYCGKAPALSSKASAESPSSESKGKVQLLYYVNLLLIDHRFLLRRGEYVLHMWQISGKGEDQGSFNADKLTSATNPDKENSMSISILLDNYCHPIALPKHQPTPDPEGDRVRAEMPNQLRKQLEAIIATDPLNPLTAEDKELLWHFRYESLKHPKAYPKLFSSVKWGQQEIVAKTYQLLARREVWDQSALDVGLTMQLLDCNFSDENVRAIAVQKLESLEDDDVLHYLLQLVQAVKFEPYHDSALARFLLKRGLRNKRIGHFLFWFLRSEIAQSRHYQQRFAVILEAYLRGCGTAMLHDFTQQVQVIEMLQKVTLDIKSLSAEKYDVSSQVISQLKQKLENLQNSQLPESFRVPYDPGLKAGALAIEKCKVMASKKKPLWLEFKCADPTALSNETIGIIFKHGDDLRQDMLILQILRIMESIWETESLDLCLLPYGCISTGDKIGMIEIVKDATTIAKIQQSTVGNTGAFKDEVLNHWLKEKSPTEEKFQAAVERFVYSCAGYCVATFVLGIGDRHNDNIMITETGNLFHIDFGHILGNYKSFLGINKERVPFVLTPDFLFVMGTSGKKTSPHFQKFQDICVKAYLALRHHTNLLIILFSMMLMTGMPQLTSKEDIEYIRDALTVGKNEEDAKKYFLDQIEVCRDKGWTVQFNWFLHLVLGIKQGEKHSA
Experimental: (d) an In Vitro Assay which Determines the Ability of a Test Compound to Inhibit PI3Kγ.
as §1, with “PI3Kγ” for “PI3Kβ”, “PI3Kγ,” for “P13Kα, a complex of”, “p120γ” for “p110β”, “AF327656) was expressed” for “NM_006219) and untagged recombinant full length human p85α (GenBank Accession No. XM—043865) were co-expressed”, “PI3Kγ […]. PI3Kγ” for “PI3Kβ (p110β/p85α). PI3Kβ”

CaPan1 = assay: Cell proliferation assay (CellTiter-Glo); format: cell-based; conditions: Homo sapiens, CAPAN-1; Pancreas; 72 hours, 0.5% fetal bovine serum; read-out: antiproliferative activity IC50, CaPan1
How it was run: (§2)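 5,000–10,000 cells/well; compound titration, 72 h, 0.5% FBS. ATP luminescence read 30 min after lysis/substrate addition.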

SWI-116 = assay: Cell proliferation assay (CellTiter-Glo); format: cell-based; conditions: Colon; 72 hours, 0.5% fetal bovine serum; read-out: antiproliferative activity IC50, SWI-116
How it was run: as §2

OPM-2 = assay: Cell proliferation assay (CellTiter-Glo); format: cell-based; conditions: Homo sapiens, Multiple Myeloma, 72 hours, 0.5% fetal bovine serum, read-out: antiproliferative activity IC50, OPM-2
How it was run: as §2

SW403 = assay: Cell proliferation assay (CellTiter-Glo); format: cell-based; conditions: Homo sapiens, SW-403; Colon; 72 hours, 0.5% fetal bovine serum; read-out: antiproliferative activity IC50, SW403
How it was run: as §2

T-84 = assay: Cell proliferation assay (CellTiter-Glo); format: cell-based; conditions: Homo sapiens, T84; Colon; 72 hours, 0.5% fetal bovine serum; read-out: antiproliferative activity IC50, T-84
How it was run: as §2

SW620 = assay: Cell proliferation assay (CellTiter-Glo); format: cell-based; conditions: Homo sapiens, SW-620; Colon; 72 hours, 0.5% fetal bovine serum; read-out: antiproliferative activity IC50, SW620
How it was run: as §2

H358 = assay: Cell proliferation assay (CellTiter-Glo); format: cell-based; conditions: Homo sapiens, NCI-H358; NSCLC; 72 hours, 0.5% fetal bovine serum; read-out: antiproliferative activity IC50, H358
How it was run: as §2

H2122 = assay: Cell proliferation assay (CellTiter-Glo); format: cell-based; conditions: Homo sapiens, NCI-H2122; NSCLC; 72 hours, 0.5% fetal bovine serum; read-out: antiproliferative activity IC50, H2122
How it was run: as §2

[1] = biological target: T3, mTor serine/threonine protein kinase (Homo sapiens, UniProt P42345); assay: mTor kinase radioisotope assay; format: biochemical; conditions: 70 uM ATP, 40 minutes; read-out: m-TOR IC50
T3 construct: FLAG; made in house; host or cells: Baculovirus expression system in Sf21 cells
How it was run: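 FLAG-tagged full-length recombinant human mTor from baculovirus/Sf21, incubated with p70S6K C-terminal fragment (2 mg/ml) and 70 uM ATP plus 33P-ATP tracer in 50 mM HEPES pH 7.5, 3 mM MnCl2, 40 min at room temperature. Phosphoric acid stop, filtermat capture, scintillation counting; IC50 from sigmoidal dose-response fit.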

T1 sequence (P42338 whole entry): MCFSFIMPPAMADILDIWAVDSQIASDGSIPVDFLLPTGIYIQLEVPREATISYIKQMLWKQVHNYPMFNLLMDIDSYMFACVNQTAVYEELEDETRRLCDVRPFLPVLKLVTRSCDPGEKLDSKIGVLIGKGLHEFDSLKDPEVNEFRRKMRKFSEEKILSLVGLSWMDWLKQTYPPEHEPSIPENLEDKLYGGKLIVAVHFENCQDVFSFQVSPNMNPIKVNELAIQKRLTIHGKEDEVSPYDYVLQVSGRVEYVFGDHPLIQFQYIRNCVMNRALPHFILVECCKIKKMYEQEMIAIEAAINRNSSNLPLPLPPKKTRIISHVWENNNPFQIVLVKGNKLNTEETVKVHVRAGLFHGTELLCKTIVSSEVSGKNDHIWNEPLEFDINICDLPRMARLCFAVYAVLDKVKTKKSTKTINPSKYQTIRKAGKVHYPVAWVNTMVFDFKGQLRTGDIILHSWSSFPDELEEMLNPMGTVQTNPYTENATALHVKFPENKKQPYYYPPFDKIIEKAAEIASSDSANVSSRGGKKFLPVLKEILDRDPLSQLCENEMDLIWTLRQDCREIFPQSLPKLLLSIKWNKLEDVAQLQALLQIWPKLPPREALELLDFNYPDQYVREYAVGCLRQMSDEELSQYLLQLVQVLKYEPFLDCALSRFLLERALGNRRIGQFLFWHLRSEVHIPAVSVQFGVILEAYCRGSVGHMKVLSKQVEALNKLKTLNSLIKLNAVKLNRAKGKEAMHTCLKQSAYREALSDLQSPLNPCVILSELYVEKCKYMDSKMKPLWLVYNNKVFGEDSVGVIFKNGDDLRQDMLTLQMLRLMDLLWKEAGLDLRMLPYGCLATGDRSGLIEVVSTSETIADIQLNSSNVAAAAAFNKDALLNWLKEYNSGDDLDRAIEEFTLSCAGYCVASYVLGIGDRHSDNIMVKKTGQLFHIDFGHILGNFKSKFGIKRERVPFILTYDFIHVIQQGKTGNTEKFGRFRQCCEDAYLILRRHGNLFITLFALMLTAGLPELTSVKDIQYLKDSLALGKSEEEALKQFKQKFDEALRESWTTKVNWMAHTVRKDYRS
T1 sequence (P27986 whole entry partner): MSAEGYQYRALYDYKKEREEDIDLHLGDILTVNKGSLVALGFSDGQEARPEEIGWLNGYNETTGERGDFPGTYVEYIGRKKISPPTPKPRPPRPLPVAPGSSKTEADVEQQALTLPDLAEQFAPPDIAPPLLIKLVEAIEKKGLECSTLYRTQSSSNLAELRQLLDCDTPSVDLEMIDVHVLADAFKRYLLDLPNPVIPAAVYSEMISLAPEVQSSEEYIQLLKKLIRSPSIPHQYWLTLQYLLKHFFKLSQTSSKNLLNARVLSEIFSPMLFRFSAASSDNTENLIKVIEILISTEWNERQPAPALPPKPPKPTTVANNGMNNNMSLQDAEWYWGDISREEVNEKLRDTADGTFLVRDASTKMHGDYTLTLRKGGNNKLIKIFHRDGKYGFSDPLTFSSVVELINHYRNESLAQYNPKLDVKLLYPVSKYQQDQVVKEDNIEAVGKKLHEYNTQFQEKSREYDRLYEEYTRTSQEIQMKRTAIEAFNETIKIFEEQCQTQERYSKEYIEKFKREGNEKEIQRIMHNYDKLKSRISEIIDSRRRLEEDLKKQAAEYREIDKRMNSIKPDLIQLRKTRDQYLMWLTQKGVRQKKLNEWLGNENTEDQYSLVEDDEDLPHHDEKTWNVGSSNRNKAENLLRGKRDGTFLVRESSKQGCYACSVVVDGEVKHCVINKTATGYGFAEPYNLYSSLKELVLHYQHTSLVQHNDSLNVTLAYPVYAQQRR

| IC50 (PI3Kβ (p110β/p85α)) | IC50 (PI3Kγ (p120γ)) | IC50 (SW403) | IC50 (SW620) | IC50 (H358) | IC50 (H2122) | IC50 [1] | SMILES | IC50 (CaPan1) | IC50 (SWI-116) | IC50 (OPM-2) | IC50 (T-84) |
| --- | --- | --- | --- | --- | --- | --- | --- | --- | --- | --- | --- |
| < 100 nM | < 100 nM | – | – | – | – | – | CN(Cc1cc2nc(-c3cccc4[nH]ncc34)nc(N3CCOCC3)c2s1)c1ncc(C(=O)NO)cn1 [Compound 54, 2-(((2-(1H-indazol-4-yl)-4-morpholinothieno[3,2-d]pyrimidin-6-yl)methyl)(methyl)amino)-N-hydroxypyrimidine-5-carboxamide] | 10 to 100 nM | – | – | – |
| 100 to 1000 nM | 100 to 1000 nM | < 10 nM | < 10 nM | < 10 nM | < 10 nM | < 100 nM | CNc1ccc(-c2nc(N3CCOCC3)c3sc(CN(C)c4ncc(C(=O)NO)cn4)cc3n2)cn1 [Compound 111, N-Hydroxy-2-(methyl((2-(6-(methylamino)pyridin-3-yl)-4-morpholinothieno[3,2-d]pyrimidin-6-yl)methyl)amino)pyrimidine-5-carboxamide] | – | < 10 nM | < 10 nM | 10 to 100 nM |
| – | – | < 10 nM | < 10 nM | < 10 nM | < 10 nM | < 100 nM | CN(Cc1cc2nc(-c3ccc(N)cc3)nc(N3CCOCC3)c2s1)c1ncc(C(=O)NO)cn1 [Compound 150, 2-(((2-(4-aminophenyl)-4-morpholinothieno[3,2-d]pyrimidin-6-yl)methyl)(methyl)amino)-N-hydroxypyrimidine-5-carboxamide] | 100 to 1000 nM | < 10 nM | < 10 nM | 10 to 100 nM |
